Reference: the supplement of paper PMC10307832

Experiments:
Experiment in all cases: relative viability (nuclei count vs DMSO), 5 days (fraction); higher = more cells survive
[1] = compound: COC1=CC(c2cc3ccccc3[nH]2)=N/C1=C\c1[nH]c(C)cc1C [Obatoclax] + Nc1nc2[nH]cc(CCc3ccc(C(=O)N[C@@H](CCC(=O)O)C(=O)O)cc3)c2c(=O)[nH]1 [Pemetrexed] (partner 0.2 µM)
Outline: (§1)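 Cells from lung cancer lines were seeded into 1536-well plates and, one day later, dosed by pin tool. Treatments were either a single drug or a fixed dose of an anchor drug with five library-drug doses (not always all listed) in √10 steps. After 5 days, nuclei were stained in a one-step fixation (final 0.05% Triton X-100, 1% formaldehyde, 1 ug/ml Hoechst) and counted on 4× images, and relative viability is the treated-to-vehicle nuclei ratio, as the median of duplicate plates.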

[2] = compound: CC(C)C[C@H](NC(=O)[C@H](Cc1ccccc1)NC(=O)c1cnccn1)B(O)O [Bortezomib] + N=C(N)NC(=N)NCCc1ccccc1 [Phenformin] (partner 250 µM)
Outline: as §1

[3] = compound: COC1=CC(c2cc3ccccc3[nH]2)=N/C1=C\c1[nH]c(C)cc1C [Obatoclax] + CC(=O)c1c(C)c2cnc(Nc3ccc(N4CCNCC4)cn3)nc2n(C2CCCC2)c1=O [Palbociclib] (partner 0.5 µM)
Outline: as §1

[4] = compound: CC(C)C[C@H](NC(=O)[C@H](Cc1ccccc1)NC(=O)c1cnccn1)B(O)O [Bortezomib] + CC1(C)CCC(c2ccc(Cl)cc2)=C(CN2CCN(c3ccc(C(=O)NS(=O)(=O)c4ccc(N[C@H](CCN5CCOCC5)CSc5ccccc5)c(S(=O)(=O)C(F)(F)F)c4)cc3)CC2)C1 [Navitoclax] (partner 0.5 µM)
Outline: as §1

Cell Line	relative viability ([1]; first compound 0.01 µM)	relative viability ([1]; first compound 0.03162 µM)	relative viability ([1]; first compound 0.1 µM)	relative viability ([1]; first compound 0.3162 µM)	relative viability ([1]; first compound 1 µM)	relative viability ([2]; first compound 0.0002 µM)	relative viability ([2]; first compound 0.000632 µM)	relative viability ([2]; first compound 0.002 µM)	relative viability ([2]; first compound 0.006325 µM)	relative viability ([2]; first compound 0.02 µM)	relative viability ([3]; first compound 0.01 µM)	relative viability ([3]; first compound 0.03162 µM)	relative viability ([3]; first compound 0.1 µM)	relative viability ([3]; first compound 0.3162 µM)	relative viability ([3]; first compound 1 µM)	relative viability ([4]; first compound 0.0002 µM)	relative viability ([4]; first compound 0.000632 µM)	relative viability ([4]; first compound 0.002 µM)	relative viability ([4]; first compound 0.006325 µM)	relative viability ([4]; first compound 0.02 µM)
NCI-H358	0.159	0.185	0.166	0.192	0.14	0.316	0.305	0.354	0.0576	0.0696	0.13	0.127	0.142	0.114	0.117	–	–	–	–	–
HCC-366	0.152	0.172	0.114	0.223	0.309	0.621	0.542	0.629	0.578	0.0354	0.401	0.34	0.311	0.304	0.203	0.945	1.03	1.04	0.949	0.0281
NCI-H2405	1.11	1.01	–	1.07	0.927	0.513	0.319	0.393	0.241	0.109	0.578	0.545	–	0.541	0.434	0.769	–	0.134	0.0865	0.113
Calu-6	–	–	–	–	–	–	–	–	–	–	–	–	–	–	–	0.749	0.882	0.69	0.0841	0.0734
201T	0.339	0.315	0.282	0.34	0.359	0.456	0.402	0.483	0.44	0.24	0.382	0.363	0.348	0.348	0.357	1.21	1.19	1.21	1.22	1.23
CAL-12T	1.04	1.16	1.13	0.896	0.149	0.552	0.585	0.586	0.25	0.114	0.445	0.495	0.426	0.176	0.0895	1.27	1.14	1.26	0.19	0.123
HCC-44	0.64	0.648	0.589	0.627	0.652	0.195	0.194	0.204	0.162	0.111	0.922	0.916	0.967	0.993	0.94	0.96	0.932	0.94	0.225	0.192
NCI-H1944	0.649	0.551	0.638	0.608	0.602	0.198	0.185	0.213	0.201	0.155	0.344	0.313	0.34	0.318	0.319	1.06	0.992	1.12	1.05	0.887
SK-MES-1	1.02	0.904	0.874	0.776	0.292	0.648	0.6	0.608	0.269	0.15	0.295	0.329	0.247	0.181	0.203	1.24	1.28	1.22	0.198	0.146
